Values quoted from earlier work as cited in patent US20230392195A1, “SYNTHETIC LETHALITY-MEDIATED PRECISION ONCOLOGY VIA TUMOR TRANSCRIPTOME” (The United States of America, as Represented by the …, priority 2020, published 2023).

System: advanced solid tumors
Settings: individual patient case: everolimus in an neuroendocrine cancer patient, cabozantinib in a colon cancer patient

CO[C@H]1C[C@@H]2CC[C@@H](C)[C@@](O)(O2)C(=O)C(=O)N2CCCC[C@H]2C(=O)O[C@H]([C@H](C)C[C@@H]2CC[C@@H](OCCO)[C@H](OC)C2)CC(=O)[C@H](C)/C=C(\C)[C@@H](O)[C@@H](OC)C(=O)[C@H](C)C[C@H](C)/C=C/C=C/C=C/1C [everolimus]
response to the therapy in the trial: responded
